According to PubChem BioAssay AID1963843 (Molecular Pharmacology Branch, DTP, NCI, 2024):

System: 616215-338-R-J1-PDC complex spheroid viability
Assay: Anticancer human tumor 616215-338-R-J1-PDC patient-derived colon adenocarcinoma cell line growth inhibition [POLQ]
Conditions: for IC50: curve of first compound; for viability, T/C: stronger effect = lower value; active = viability on the fitted dose curve at most 10% of control; inactive = the rest
In short: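 Complex spheroid viability model combining PDC tumour cells with endothelial (HUVEC) and MSC stromal cells. Novobiocin, ART-558 or RP6685 were tested singly and in combination with standard and investigational anticancer drugs. Each was titrated in half-log steps from near clinical Cmax, or from 10 microM where Cmax was unknown.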

[1] = second compound 0.0316 µM, first compound 0.0316 µM
[2] = second compound 0.0316 µM, first compound 0.1 µM
[3] = second compound 0.0316 µM, first compound 0.316 µM
[4] = second compound 0.0316 µM, first compound 1 µM
[5] = second compound 0.0316 µM, first compound 3.16 µM
[6] = second compound 0.0316 µM, first compound 10 µM
[7] = second compound 0.1 µM, first compound 0.0316 µM
[8] = second compound 0.1 µM, first compound 0.1 µM
[9] = second compound 0.1 µM, first compound 0.316 µM
[10] = second compound 0.1 µM, first compound 1 µM
[11] = second compound 0.1 µM, first compound 3.16 µM
[12] = second compound 0.1 µM, first compound 10 µM
[13] = second compound 0.316 µM, first compound 0.0316 µM
[14] = second compound 0.316 µM, first compound 0.1 µM
[15] = second compound 0.316 µM, first compound 0.316 µM
[16] = second compound 0.316 µM, first compound 1 µM
[17] = second compound 0.316 µM, first compound 3.16 µM
[18] = second compound 0.316 µM, first compound 10 µM
[19] = second compound 1 µM, first compound 0.0316 µM
[20] = second compound 1 µM, first compound 0.1 µM
[21] = second compound 1 µM, first compound 0.316 µM
[22] = second compound 1 µM, first compound 1 µM
[23] = second compound 1 µM, first compound 3.16 µM
[24] = second compound 1 µM, first compound 10 µM
[25] = second compound 3.16 µM, first compound 0.0316 µM
[26] = second compound 3.16 µM, first compound 0.1 µM
[27] = second compound 3.16 µM, first compound 0.316 µM
[28] = second compound 3.16 µM, first compound 1 µM
[29] = second compound 3.16 µM, first compound 3.16 µM
[30] = second compound 3.16 µM, first compound 10 µM
[31] = second compound 10 µM, first compound 0.0316 µM
[32] = second compound 10 µM, first compound 0.1 µM
[33] = second compound 10 µM, first compound 0.316 µM
[34] = second compound 10 µM, first compound 1 µM
[35] = second compound 10 µM, first compound 3.16 µM
[36] = second compound 10 µM, first compound 10 µM
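Note: spheroids exposed to compounds for one week before readout.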
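Throughout, for viability, T/C: percent viability relative to DMSO vehicle wells taken as 100%.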

O=C(c1cc(Cc2n[nH]c(=O)c3ccccc23)ccc1F)N1CCN(C(=O)C2CC2)CC1 + COC1C(OC(N)=O)C(O)C(Oc2ccc3c(O)c(NC(=O)c4ccc(O)c(CC=C(C)C)c4)c(=O)oc3c2C)OC1(C)C
> 10 µM: IC50 (second compound 0.0316 µM) | IC50 (second compound 0.1 µM) | IC50 (second compound 0.316 µM) | IC50 (second compound 1 µM) | IC50 (second compound 3.16 µM) | IC50 (second compound 10 µM)
inactive: viability, T/C [1] 103% | viability, T/C [2] 99.2% | viability, T/C [3] 107% | viability, T/C [4] 105% | viability, T/C [5] 109% | viability, T/C [6] 87.8% | viability, T/C [7] 102% | viability, T/C [8] 89% | viability, T/C [9] 98.5% | viability, T/C [10] 99.8% | viability, T/C [11] 110% | viability, T/C [12] 85.7% | viability, T/C [13] 102% | viability, T/C [14] 113% | viability, T/C [15] 103% | viability, T/C [16] 101% | viability, T/C [17] 109% | viability, T/C [18] 98.2% | viability, T/C [19] 107% | viability, T/C [20] 108% | viability, T/C [21] 102% | viability, T/C [22] 101% | viability, T/C [23] 97% | viability, T/C [24] 93.4% | viability, T/C [25] 99.6% | viability, T/C [26] 95% | viability, T/C [27] 96.7% | viability, T/C [28] 94.7% | viability, T/C [29] 109% | viability, T/C [30] 88.2% | viability, T/C [31] 104% | viability, T/C [32] 94% | viability, T/C [33] 106% | viability, T/C [34] 105% | viability, T/C [35] 95.1% | viability, T/C [36] 84.5%

CCCS(=O)(=O)Nc1ccc(F)c(C(=O)c2c[nH]c3ncc(-c4ccc(Cl)cc4)cc23)c1F + COC1C(OC(N)=O)C(O)C(Oc2ccc3c(O)c(NC(=O)c4ccc(O)c(CC=C(C)C)c4)c(=O)oc3c2C)OC1(C)C
inactive: viability, T/C [1] 99.9% | viability, T/C [2] 99.7% | viability, T/C [3] 100% | viability, T/C [4] 108% | viability, T/C [5] 97.1% | viability, T/C [6] 16.8% | viability, T/C [7] 98.2% | viability, T/C [8] 116% | viability, T/C [9] 102% | viability, T/C [10] 107% | viability, T/C [11] 91.1% | viability, T/C [12] 15.2% | viability, T/C [13] 109% | viability, T/C [14] 113% | viability, T/C [15] 95.8% | viability, T/C [16] 99.7% | viability, T/C [17] 83.8% | viability, T/C [18] 18.9% | viability, T/C [19] 113% | viability, T/C [20] 103% | viability, T/C [21] 96.7% | viability, T/C [22] 105% | viability, T/C [23] 86.4% | viability, T/C [24] 14.1% | viability, T/C [25] 96.6% | viability, T/C [26] 99.7% | viability, T/C [27] 98.1% | viability, T/C [28] 107% | viability, T/C [29] 91.3% | viability, T/C [30] 16.9% | viability, T/C [31] 106% | viability, T/C [32] 97.8% | viability, T/C [33] 104% | viability, T/C [34] 93% | viability, T/C [35] 89.9% | viability, T/C [36] 15.8%
6.22 µM: IC50 (second compound 0.0316 µM)
5.82 µM: IC50 (second compound 10 µM)
5.66 µM: IC50 (second compound 1 µM)
5.9 µM: IC50 (second compound 0.1 µM)
6.01 µM: IC50 (second compound 3.16 µM)
5.7 µM: IC50 (second compound 0.316 µM)
